# Legend:
# immune function = details: cited from earlier work
# [1] = rats suffering from artificial peritonitis; cited from earlier work
# [2] = Activity of vitamin C in drip infusion depending on pH; assay type: physicochemical; details: drip infusion with a pH of 7.0 or greater
# [3] = Viscosity of mucopolysaccharides after adding vitamin C (Oswald viscometer); details: vitamin C added to mucopolysaccharides
# [4] = Oxidation of vitamin C dissolved in a juice; assay type: physicochemical; details: within about 90 minutes
activity of vitamin C [2],vitamin C that becomes an oxidized derivative [4] [%],SMILES,decreased weight of the thymus gland and decreased T-cells' capability of blast transformation (immune function; rat suffering from fracture),T-cells' capability of blast transformation (immune function; rats),weight of the thymus gland (immune function; rats),survivorship [1],viscosity of the mixture [3]
,,N=C(N)NCCC[C@H](N)C(=O)O [arginine],recovered,increases,increases,remarkably increased survivorship,
decreases,50,"O=C1O[C@H]([C@@H](O)CO)C(O)=C1O [vitamin C, ascorbic acid]",,,,,gradually decreases
